Test results as given in patent US11135234B2, “Effective aminoglycoside antibiotic for multidrug-resistant bacteria” (MICROBIAL CHEMISTRY RESEARCH FOUNDATION, priority 2015, dated 2021).
≈ marks a conversion by molar mass, not a printed value.

Key:
S. aureus RN4220 = assay: MIC, agar plate dilution method, S. aureus RN4220; format: cell-based, Staphylococcus aureus; settings: for MIC: Staphylococcus aureus, RN4220, S. aureus RN4220, Sensitive bacterium, read-out: minimal inhibitory concentration (MIC)
Experimental: (§1) As for the representative compounds of a new aminoglycoside antibiotic of the present invention described in Examples, the minimal inhibitory concentration (MIC, μg/mL) was measured for various assay strains of bacteria using an agar plate dilution method in accordance with the method described in the Japan Society of Chemotherapy.

S. aureus RN4220/pMS520 = assay: MIC, agar plate dilution method, S. aureus RN4220/pMS520; format: cell-based, Staphylococcus aureus; settings: for MIC: Staphylococcus aureus, MRSA, read-out: minimal inhibitory concentration (MIC), S. aureus RN4220/pMS520, MRSA
Experimental: as §1

S. aureus MF490 = assay: MIC, agar plate dilution method, S. aureus MF490; format: cell-based, Staphylococcus aureus; settings: for MIC: Staphylococcus aureus, MRSA, read-out: minimal inhibitory concentration (MIC)
Experimental: as §1

E. faecium ATCC19434 = assay: MIC, agar plate dilution method, E. faecium ATCC19434; format: cell-based, Enterococcus faecium; settings: for MIC: Enterococcus faecium, ATCC19434, E. faecium ATCC19434, read-out: minimal inhibitory concentration (MIC)
Experimental: as §1

E. coli JM109/pMW218 = assay: MIC, agar plate dilution method, E. coli JM109/pMW218; format: cell-based, Escherichia coli; settings: for MIC: Escherichia coli, JM109/PMW218, E. coli JM109/pMW218, Sensitive bacterium, read-out: minimal inhibitory concentration (MIC)
Experimental: as §1

[1] = test system: K. pneumoniae ATCC BAA-1705; assay: MIC, agar plate dilution method, K. pneumoniae ATCC BAA-1705; format: cell-based, Klebsiella pneumoniae; settings: for MIC: Klebsiella pneumoniae, ATCCBAA1705, K. pneumoniae ATCC BAA-1705, KPC-producing strain, read-out: minimal inhibitory concentration (MIC)
Experimental: as §1

[2] = test system: K. pneumoniae ATCC BAA-2146; assay: MIC, agar plate dilution method, K. pneumoniae ATCC BAA-2146; format: cell-based, Klebsiella pneumoniae; settings: for MIC: Klebsiella pneumoniae, ATCCBAA2146, K. pneumoniae ATCC BAA-2146, NDM-producing strain, read-out: minimal inhibitory concentration (MIC)
Experimental: as §1

[3] = test system: A. baumannii ATCC BAA-1710; assay: MIC, agar plate dilution method, A. baumannii ATCC BAA-1710; format: cell-based, Acinetobacter baumannii; settings: for MIC: Acinetobacter baumannii, ATCCBAA1710, A. baumannii ATCC BAA-1710, MDRA, read-out: minimal inhibitory concentration (MIC)
Experimental: as §1

S. marcescens TH-0447 = assay: MIC, agar plate dilution method, S. marcescens TH-0447; format: cell-based, Serratia marcescens; settings: for MIC: Serratia marcescens, TH0447, S. marcescens TH-0447, AMK-resistant, read-out: minimal inhibitory concentration (MIC)
Experimental: as §1

S. marcescens GN6944 = assay: MIC, agar plate dilution method, S. marcescens GN6944; format: cell-based, Serratia marcescens; settings: S. marcescens GN6944, GM-resistant; for MIC: Serratia marcescens, read-out: minimal inhibitory concentration (MIC)
Experimental: as §1

P. aeruginosa PAO1 = assay: MIC, agar plate dilution method, P. aeruginosa PAO1; format: cell-based, Pseudomonas aeruginosa; settings: for MIC: Pseudomonas aeruginosa, PAO1, P. aeruginosa PAO1, Sensitive bacterium, read-out: minimal inhibitory concentration (MIC)
Experimental: as §1

P. aeruginosa PAO1/GN315 = assay: MIC, agar plate dilution method, P. aeruginosa PAO1/GN315; format: cell-based, Pseudomonas aeruginosa; settings: for MIC: Pseudomonas aeruginosa, read-out: minimal inhibitory concentration (MIC), P. aeruginosa PAO1/GN315, AMK-resistant
Experimental: as §1

P. aeruginosa MSC17707 = assay: MIC, agar plate dilution method, P. aeruginosa MSC17707; format: cell-based, Pseudomonas aeruginosa; settings: for MIC: Pseudomonas aeruginosa, MSC17707, P. aeruginosa MSC17707, AMK-resistant, read-out: minimal inhibitory concentration (MIC)
Experimental: as §1

P. aeruginosa MSC01035 = assay: MIC, agar plate dilution method, P. aeruginosa MSC01035; format: cell-based, Pseudomonas aeruginosa; settings: P. aeruginosa MSC01035, ABK-resistant; for MIC: Pseudomonas aeruginosa, read-out: minimal inhibitory concentration (MIC)
Experimental: as §1

Structure (SMILES): CNC1C(O[C@H]2OC(CO)[C@@H](NC(=O)CN)[C@H](O)C2O)O[C@H]2C[C@H](N)[C@@H](O[C@@H]3C(N)C[C@@H](N)C(O)[C@H]3N)OC2C1O (stereo partly drawn) [Compound W2-b, 5-amino-5-deoxy-5-epi-4″-N-glycylapramycin]
- MIC (S. aureus RN4220): 4 µg/mL (≈ 6.72 µM)
- MIC (S. aureus RN4220/pMS520): 2 µg/mL (≈ 3.36 µM)
- MIC (S. aureus MF490): 16 µg/mL (≈ 26.9 µM)
- MIC (E. faecium ATCC19434): 32 µg/mL (≈ 53.7 µM)
- MIC (E. coli JM109/pMW218): 1 µg/mL (≈ 1.68 µM)
- MIC [1]: 2 µg/mL (≈ 3.36 µM)
- MIC [2]: 2 µg/mL (≈ 3.36 µM)
- MIC [3]: 8 µg/mL (≈ 13.4 µM)
- MIC (S. marcescens TH-0447): 16 µg/mL (≈ 26.9 µM)
- MIC (S. marcescens GN6944): 8 µg/mL (≈ 13.4 µM)
- MIC (P. aeruginosa PAO1): 2 µg/mL (≈ 3.36 µM)
- MIC (P. aeruginosa PAO1/GN315): 4 µg/mL (≈ 6.72 µM)
- MIC (P. aeruginosa MSC17707): 4 µg/mL (≈ 6.72 µM)
- MIC (P. aeruginosa MSC01035): 4 µg/mL (≈ 6.72 µM)

Structure (SMILES): CNC1C(O[C@H]2OC(CO)[C@@H](NC3CNC3)[C@H](O)C2O)O[C@H]2CC(N)[C@@H](O[C@@H]3C(N)C[C@@H](N)C(O)[C@H]3O)OC2C1O (stereo partly shown) [Compound A4-h, 4″-N-(azetidin-3-yl)apramycin]
- minimal inhibitory concentration (MIC) (S. aureus RN4220; S. aureus RN4220, Sensitive bacterium): 4 µg/mL (≈ 6.73 µM)
- minimal inhibitory concentration (MIC) (S. aureus RN4220/pMS520; S. aureus RN4220/pMS520, MRSA): 4 µg/mL (≈ 6.73 µM)
- minimal inhibitory concentration (MIC) (S. aureus MF490; S. aureus MF490, MRSA): 16 µg/mL (≈ 26.9 µM)
- minimal inhibitory concentration (MIC) (E. faecium ATCC19434; E. faecium ATCC19434): 32 µg/mL (≈ 53.8 µM)
- minimal inhibitory concentration (MIC) (E. coli JM109/pMW218; E. coli JM109/pMW218, Sensitive bacterium): 2 µg/mL (≈ 3.36 µM)
- minimal inhibitory concentration (MIC) ([1]; K. pneumoniae ATCC BAA-1705, KPC-producing strain): 4 µg/mL (≈ 6.73 µM)
- minimal inhibitory concentration (MIC) ([2]; K. pneumoniae ATCC BAA-2146, NDM-producing strain): 2 µg/mL (≈ 3.36 µM)
- minimal inhibitory concentration (MIC) ([3]; A. baumannii ATCC BAA-1710, MDRA): 16 µg/mL (≈ 26.9 µM)
- minimal inhibitory concentration (MIC) (S. marcescens TH-0447; S. marcescens TH-0447, AMK-resistant): 16 µg/mL (≈ 26.9 µM)
- minimal inhibitory concentration (MIC) (S. marcescens GN6944): 8 µg/mL (≈ 13.5 µM)
- minimal inhibitory concentration (MIC) (P. aeruginosa PAO1; P. aeruginosa PAO1, Sensitive bacterium): 8 µg/mL (≈ 13.5 µM)
- minimal inhibitory concentration (MIC) (P. aeruginosa PAO1/GN315; P. aeruginosa PAO1/GN315, AMK-resistant): 16 µg/mL (≈ 26.9 µM)
- minimal inhibitory concentration (MIC) (P. aeruginosa MSC17707; P. aeruginosa MSC17707, AMK-resistant): 16 µg/mL (≈ 26.9 µM)
- minimal inhibitory concentration (MIC) (P. aeruginosa MSC01035): 16 µg/mL (≈ 26.9 µM)

Structure (SMILES): CNC1C(O[C@H]2OC(CO)[C@@H](NC)[C@H](O)C2O)O[C@H]2CC(N)[C@@H](O[C@H]3CC(O)[C@H](N)CC3N)OC2C1O (stereo partly shown) [Compound S1-a, 5-deoxy-4″-N-methylapramycin]
- MIC (S. aureus RN4220): 2 µg/mL (≈ 3.72 µM)
- MIC (S. aureus RN4220/pMS520): 2 µg/mL (≈ 3.72 µM)
- MIC (S. aureus MF490): 8 µg/mL (≈ 14.9 µM)
- MIC (E. faecium ATCC19434): 32 µg/mL (≈ 59.5 µM)
- MIC (E. coli JM109/pMW218): 1 µg/mL (≈ 1.86 µM)
- MIC [1]: 1 µg/mL (≈ 1.86 µM)
- MIC [2]: 1 µg/mL (≈ 1.86 µM)
- MIC [3]: 8 µg/mL (≈ 14.9 µM)
- MIC (S. marcescens TH-0447): 8 µg/mL (≈ 14.9 µM)
- MIC (S. marcescens GN6944): 4 µg/mL (≈ 7.44 µM)
- MIC (P. aeruginosa PAO1): 4 µg/mL (≈ 7.44 µM)
- MIC (P. aeruginosa PAO1/GN315): 4 µg/mL (≈ 7.44 µM)
- MIC (P. aeruginosa MSC17707): 4 µg/mL (≈ 7.44 µM)
- MIC (P. aeruginosa MSC01035): 4 µg/mL (≈ 7.44 µM)

Structure (SMILES): CNC1C(O[C@H]2OC(CO)[C@@H](NC(CN)CN)[C@H](O)C2O)O[C@H]2CC(N)[C@@H](O[C@@H]3C(N)C[C@@H](N)C(O)[C@H]3O)OC2C1O (stereo partly shown) [Compound A4-d, 4″-N-(1,3-diaminopropan-2-yl)apramycin]
- MIC (S. aureus RN4220): 2 µg/mL (≈ 3.27 µM)
- MIC (S. aureus RN4220/pMS520): 2 µg/mL (≈ 3.27 µM)
- MIC (S. aureus MF490): 4 µg/mL (≈ 6.54 µM)
- MIC (E. faecium ATCC19434): 8 µg/mL (≈ 13.1 µM)
- MIC (E. coli JM109/pMW218): 1 µg/mL (≈ 1.63 µM)
- MIC [1]: 2 µg/mL (≈ 3.27 µM)
- MIC [2]: 1 µg/mL (≈ 1.63 µM)
- MIC [3]: 4 µg/mL (≈ 6.54 µM)
- MIC (S. marcescens TH-0447): 8 µg/mL (≈ 13.1 µM)
- MIC (S. marcescens GN6944): 4 µg/mL (≈ 6.54 µM)
- MIC (P. aeruginosa PAO1): 4 µg/mL (≈ 6.54 µM)
- MIC (P. aeruginosa PAO1/GN315): 4 µg/mL (≈ 6.54 µM)
- MIC (P. aeruginosa MSC17707): 4 µg/mL (≈ 6.54 µM)
- MIC (P. aeruginosa MSC01035): 8 µg/mL (≈ 13.1 µM)

Structure (SMILES): CNC1C(O[C@H]2OC(C)[C@@H](NC(CN)CN)[C@H](O)C2O)O[C@H]2CC(N)[C@@H](O[C@H]3CC(O)[C@H](N)CC3N)OC2C1O (stereo partly shown) [Compound S1-p, 4″-N-(1,3-diaminopropan-2-yl)-5,6″-dideoxyapramycin]
- MIC (S. aureus RN4220): 1 µg/mL (≈ 1.73 µM)
- MIC (S. aureus RN4220/pMS520): 1 µg/mL (≈ 1.73 µM)
- MIC (S. aureus MF490): 2 µg/mL (≈ 3.45 µM)
- MIC (E. faecium ATCC19434): 4 µg/mL (≈ 6.9 µM)
- MIC (E. coli JM109/pMW218): 1 µg/mL (≈ 1.73 µM)
- MIC [1]: 1 µg/mL (≈ 1.73 µM)
- MIC [2]: 1 µg/mL (≈ 1.73 µM)
- MIC [3]: 8 µg/mL (≈ 13.8 µM)
- MIC (S. marcescens TH-0447): 8 µg/mL (≈ 13.8 µM)
- MIC (S. marcescens GN6944): 4 µg/mL (≈ 6.9 µM)
- MIC (P. aeruginosa PAO1): 2 µg/mL (≈ 3.45 µM)
- MIC (P. aeruginosa PAO1/GN315): 4 µg/mL (≈ 6.9 µM)
- MIC (P. aeruginosa MSC17707): 4 µg/mL (≈ 6.9 µM)
- MIC (P. aeruginosa MSC01035): 4 µg/mL (≈ 6.9 µM)
